Assays:
[1] = system: MT2; assay: Concentration required for anti-viral activity (Anti-HIV-IIIB activity) against human T lymphoid (MT-2) cells that are infected with HIV-IIIB virus; format: functional, cell-based
[2] = molecular target: Human immunodeficiency virus type 1 protease (Human immunodeficiency virus 1, UniProt Q72874); assay: Concentration required for inhibitory activity against HIV-1 Protease

SMILES	IC50 [1] [nM]	IC50 [2] [nM]
CC(C)(C)NC(=O)[C@@H]1C[C@@H]2CCCC[C@@H]2CN1C[C@@H](O)[C@H](Cc1ccccc1)NC(=O)[C@H](CC(N)=O)NC(=O)c1ccc2ccccc2n1	3	–
CC[C@H](C)[C@H](NC(=O)[C@H](Cc1ccccc1)C[C@@H](O)CN1C[C@H]2CCCC[C@H]2C[C@H]1C(=O)NC(C)(C)C)C(=O)NCc1nc2ccccc2[nH]1	21	30
CC[C@H](C)[C@H](NC(=O)[C@H](Cc1ccccc1)CC(O)CN1CCC[C@@H]1C(=O)N[C@H](C(=O)OC(C)(C)C)[C@@H](C)CC)C(=O)NCc1nc2ccccc2[nH]1 (some centres undefined)	> 1750	> 1400
CC[C@H](C)[C@H](NC(=O)[C@H](Cc1ccccc1)CC(O)CN1CCC[C@@H]1C(=O)NC(C)(C)C)C(=O)NCc1nc2ccccc2[nH]1 (some centres undefined)	490	80
CC[C@H](C)[C@H](NC(=O)[C@H](Cc1ccccc1)CC(O)(CO)CN1C[C@H]2CCCC[C@H]2C[C@H]1C(=O)NC(C)(C)C)C(=O)NCc1nc2ccccc2[nH]1 (some centres undefined)	280	–
CC[C@H](C)[C@H](NC(=O)[C@H](Cc1ccccc1)CC(O)CN1C[C@H]2CCCC[C@H]2C[C@H]1C(=O)NC(C)(C)C)C(=O)OC (some centres undefined)	> 1750	–
CC(C)(C)NC(=O)[C@@H]1C[C@@H]2CCCC[C@@H]2CN1CC(O)C[C@@H](Cc1ccccc1)C(=O)N[C@H]1CCCC[C@@H]1NC(=O)c1ccc2ccccc2n1 (some centres undefined)	3600	70
CC[C@H](C)[C@H](NC(=O)[C@H](Cc1ccccc1)CC(O)(CO)CN(CC(=O)NC(C)(C)C)CC1CCCCC1)C(=O)NCc1nc2ccccc2[nH]1 (some centres undefined)	> 1750	140
CC[C@H](C)[C@H](NC(=O)[C@H](Cc1ccccc1)CC(O)CN1CCCCC1C(=O)NC(C)(C)C)C(=O)NCc1nc2ccccc2[nH]1 (some centres undefined)	480	30
CC(C)(C)NC(=O)[C@@H]1C[C@@H]2CCCC[C@@H]2CN1CC(O)C[C@@H](Cc1ccccc1)C(=O)N[C@H]1CCCC[C@@H]1NC(=O)c1cc2ccccc2cn1 (some centres undefined)	1750	70
CC[C@H](C)[C@H](NC(=O)[C@H](CC(C)C)CC(O)CN1C[C@H]2CCCC[C@H]2C[C@H]1C(=O)NC(C)(C)C)C(=O)NCc1nc2ccccc2[nH]1 (some centres undefined)	31	30
CC[C@H](C)[C@H](NC(=O)[C@H](Cc1ccccc1)CC(O)CN1C[C@H]2CCCC[C@H]2C[C@H]1C(=O)NC(C)(C)C)C(=O)NCCc1nc2ccccc2[nH]1 (some centres undefined)	850	130
CN(CC(O)C[C@@H](Cc1ccccc1)C(=O)N[C@H]1CCCC[C@@H]1NC(=O)c1ccc2ccccc2n1)[C@@H](CC1CCCCC1)C(=O)NC(C)(C)C (some centres undefined)	> 1750	> 1400
CC[C@H](C)[C@H](NC(=O)[C@H](Cc1ccccc1)CC(O)CN1CCCCC1C(=O)NC(C)(C)C)C(=O)NCc1ccccn1 (some centres undefined)	> 1750	250
CC[C@H](C)[C@H](NC(=O)[C@H](Cc1ccccc1)CC(O)CN1C[C@H]2CCCC[C@H]2C[C@H]1C(=O)NC(C)(C)C)C(=O)NCc1ccccn1 (some centres undefined)	310	150
CC[C@H](C)[C@H](NC(=O)[C@H](Cc1ccccc1)CC(O)CN1C[C@H]2CCCC[C@H]2C[C@H]1C(=O)NC(C)(C)C)C(=O)NCc1nc2ccccc2[nH]1 (single isomer, unassigned)	29	30
